Where “and” joins values, the source holds several entries; their conditions need not be identical. Equal values may be shown once. Read-outs that look alike come from different tables or passages of the source.
Experiments:
[1] = format: in vivo, patients; conditions: end of treatment (Week 2-3), test of cure (Week 4-5), end of study (Week 8-9)
[2] = test system: E. coli ATCC 25922; conditions: cited from earlier work
[3] = humans
[4] = test system: CYP; conditions: liver microsome (CYP) and hepatocyte
[5] = in vivo; conditions: rat, rats, lung-deposited dose, read-out: acute no observed adverse effect level (NOAEL)
Experimental: Based on rat tox and PK data to date, an acute no observed adverse effect level (NOAEL) in rats is approximately 100 μg/kg lung-deposited dose. The NOAEL was established through clinical observation during and after treatment, gross necropsy, lung lavage analysis, clinical chemistry, and hematology results. […] Furthermore, lung surface fluid concentrations are approximately 30-fold higher than the corresponding total lung tissue concentrations for BisEDT which appears to persist primarily on the lumen.

[6] = format: in vivo, beagle dogs; conditions: dog, per animal and Grp Avg, sampling times not given
Experimental: Once adequately conditioned to the restraint device and face-masks, the animals are individually exposed to the test article aerosols. Animals receive a single face-mask inhalation exposure in a ramp study design to test article aerosols for up to 60 min. Animal observations during and post exposure determine the tolerance of inhaled BisEDT aerosols.
Blood Collections and Bioanalytical Analysis: Blood are collected for pharmacokinetic (PK) analysis prior to exposure, then at 4 hr (±5 min) post exposure, and again on Day 1, Day 2, Day 7 (pre- and 4 hr (±5 min)-post exposure), Day 8, Day 9, Day 10, Day 11, Day 12, Day 13, and Day 14. A total of 0.25 mL is collected at each timepoint. No PK blood is collected from the vehicle control (Group 1) animals; only animals exposed to BisEDT have blood collected for PK analysis. Collected samples are flash frozen without processing for shipment to Medpace for bioanalytical analysis. Additional blood is collected from all animals in all groups for hematology (1 mL) and clinical chemistry (1 mL) at baseline, Day 7 (pre-exposure), and again at euthanasia. Blood (2-2 mL) is collected from all animals at necropsy for coagulation analysis (d-Dimer, fibrinogen, PT, and PTT).
For hematology analyses, whole blood (1 ml) will be collected with vacutainers containing K3EDTA as an anticoagulant.
Hematology samples are analyzed by automated (ADVIA™ 120 Hematology System, Siemens Medical Solutions Diagnostics, Tarrytown, N.Y.) analyses. Disposition will be recorded on the sample processing form.

[7] = test system: MucilAir fully differentiated human airway epithelium
[8] = test system: MucilAir fully differentiated human airway epithelium; remark: listed apart in the source
[9] = Group 2 (55-56 ug/kg lung deposited)
[10] = Group 4 (176-197 ug/kg lung deposited)

Structure (SMILES): C1C[S][Bi]([S]CC[S][Bi]2[S]CC[S]2)[S]1 [BisEDT, Bismuth-1,2-ethanedithiol]
- proportion of subjects with >50% reduction in wound surface area from baseline vs placebo [1]: A larger proportion
- QC Range 24 hr ([2]; E. coli ATCC 25922, established QC range, 24 hr): 0.5-4
- Expected MIC: goal (acceptable range) ([2]; control strain ATCC 25922): 1 µg/mL
- well-tolerated topical concentration ([3]; 6 hours): up to 2500 μg/cm^2
- tolerated topical concentration ([3]; over 21 days continuous exposure, normal and abraded skin): up to 75 μg/cm^2
- effect on liver cell metabolism (inhibition or induction of standard substrates) [4]: no significant effect
- NOAEL [5]: ~0.1 mg/kg
- BASO [6, 9]: 0.12 ^3/uL (2×) and 0.15 ^3/uL and 0.08 ^3/uL (2×) and 0.11 ^3/uL and 0.10 ^3/uL and 0.07 ^3/uL and 0.13 ^3/uL
- EOS [6, 9]: 0.30 ^3/uL and 0.45 ^3/uL and 0.39 ^3/uL and 0.14 ^3/uL and 0.09 ^3/uL and 0.06 ^3/uL and 0.22 ^3/uL and 0.27 ^3/uL and 0.23 ^3/uL
- HCT [6, 9]: 45.8% and 43.1% and 41.8% and 49.0% and 43.7% and 42.9% and 47.4% and 43.4% and 42.4%
- HGB [6, 9]: 15.6 g/dL and 15.0 g/dL (3×) and 14.2 g/dL and 16.4 g/dL and 14.3 g/dL (2×) and 16.0 g/dL
- LUC [6, 9]: 0.01 ^3/uL (5×) and 0.02 ^3/uL (4×)
- LYMP [6, 9]: 2.81 ^3/uL and 2.73 ^3/uL and 2.09 ^3/uL and 2.27 ^3/uL and 2.82 ^3/uL and 2.61 ^3/uL and 2.54 ^3/uL and 2.78 ^3/uL and 2.35 ^3/uL
- MCH [6, 9]: 22.8 pg (2×) and 23.2 pg (2×) and 22.7 pg and 22.3 pg (2×) and 21.9 pg and 23.0 pg
- MCHC [6, 9]: 34.1 g/dL (2×) and 34.9 g/dL and 33.4 g/dL and 34.4 g/dL and 33.2 g/dL and 33.8 g/dL and 34.7 g/dL and 33.7 g/dL
- MCV [6, 9]: 67.0 fL and 66.4 fL and 66.5 fL and 69.5 fL and 64.8 fL and 66.0 fL and 68.3 fL and 65.6 fL and 66.3 fL
- MONO [6, 9]: 0.63 ^3/uL and 0.67 ^3/uL and 0.53 ^3/uL and 0.50 ^3/uL and 0.51 ^3/uL (2×) and 0.57 ^3/uL and 0.59 ^3/uL and 0.52 ^3/uL
- NEUT [6, 9]: 5.31 ^3/uL and 5.11 ^3/uL and 2.88 ^3/uL and 3.96 ^3/uL and 4.26 ^3/uL and 4.83 ^3/uL and 4.64 ^3/uL and 4.69 ^3/uL and 3.86 ^3/uL
- PLT [6, 9]: 197 ^3/uL and 166 ^3/uL and 161 ^3/uL and 206 ^3/uL and 294 ^3/uL and 304 ^3/uL and 201.5 ^3/uL and 230.0 ^3/uL and 232.5 ^3/uL
- RBC [6, 9]: 6.83 ^6/uL and 6.49 ^6/uL and 6.28 ^6/uL and 7.05 ^6/uL and 6.74 ^6/uL and 6.50 ^6/uL and 6.94 ^6/uL and 6.62 ^6/uL and 6.39 ^6/uL
- RET % [6, 9]: 0.34% and 0.55% and 0.60% and 0.65% and 0.25% and 0.31% and 0.50% and 0.40% and 0.46%
- WBC [6, 9]: 9.18 ^3/uL and 9.13 ^3/uL and 5.99 ^3/uL and 6.99 ^3/uL and 7.77 ^3/uL and 8.10 ^3/uL and 8.09 ^3/uL and 8.45 ^3/uL and 7.05 ^3/uL
- BASO [6, 10]: 0.07 ^3/uL (3×) and 0.04 ^3/uL (2×) and 0.09 ^3/uL (3×) and 0.06 ^3/uL and 0.08 ^3/uL (2×) and 0.05 ^3/uL and 0.10 ^3/uL (3×)
- EOS [6, 10]: 0.48 ^3/uL and 0.50 ^3/uL and 0.35 ^3/uL and 0.95 ^3/uL and 0.77 ^3/uL and 0.47 ^3/uL and 0.72 ^3/uL and 0.64 ^3/uL and 0.41 ^3/uL and 0.18 ^3/uL and 0.13 ^3/uL and 0.19 ^3/uL (2×) and 0.21 ^3/uL and 0.17 ^3/uL
- HCT [6, 10]: 42.7% and 47.5% and 45.4% and 41.9% and 50.6% and 47.6% and 42.30% and 49.05% and 46.50% and 39.8% and 40.7% and 37.1% and 44.2% and 38.45% and 42.45%
- HGB [6, 10]: 14.8 g/dL and 16.0 g/dL and 14.6 g/dL and 14.7 g/dL and 16.6 g/dL and 15.4 g/dL and 14.75 g/dL and 16.30 g/dL and 15.00 g/dL and 13.7 g/dL and 13.8 g/dL and 12.8 g/dL and 14.3 g/dL and 13.25 g/dL and 14.05 g/dL
- LUC [6, 10]: 0.01 ^3/uL (7×) and 0.02 ^3/uL (8×)
- LYMP [6, 10]: 2.68 ^3/uL and 3.18 ^3/uL and 2.78 ^3/uL (2×) and 2.88 ^3/uL and 3.04 ^3/uL and 2.82 ^3/uL and 3.11 ^3/uL and 2.80 ^3/uL and 2.46 ^3/uL and 2.59 ^3/uL and 2.32 ^3/uL and 2.87 ^3/uL and 2.39 ^3/uL and 2.73 ^3/uL
- MCH [6, 10]: 23.0 pg and 23.4 pg and 22.9 pg (2×) and 22.8 pg and 23.1 pg and 22.90 pg (2×) and 23.25 pg and 24.1 pg and 20.9 pg and 21.0 pg and 24.2 pg and 22.55 pg (2×)
- MCHC [6, 10]: 34.7 g/dL and 33.6 g/dL and 32.2 g/dL and 35.2 g/dL and 32.8 g/dL and 32.4 g/dL (2×) and 34.95 g/dL and 33.20 g/dL (2×) and 32.30 g/dL and 34.4 g/dL and 34.0 g/dL and 34.6 g/dL and 34.50 g/dL
- MCV [6, 10]: 66.3 fL and 69.7 fL and 71.3 fL and 64.8 fL and 70.4 fL and 70.9 fL and 65.55 fL and 70.05 fL and 71.10 fL and 70.1 fL and 61.6 fL and 60.8 fL and 74.7 fL and 65.45 fL and 68.15 fL
- MONO [6, 10]: 0.39 ^3/uL (2×) and 0.37 ^3/uL (2×) and 0.49 ^3/uL and 0.50 ^3/uL (2×) and 0.44 ^3/uL (2×) and 0.38 ^3/uL and 0.73 ^3/uL and 0.45 ^3/uL and 0.61 ^3/uL and 0.59 ^3/uL and 0.56 ^3/uL
- NEUT [6, 10]: 4.61 ^3/uL and 5.96 ^3/uL (2×) and 6.30 ^3/uL and 5.98 ^3/uL and 5.95 ^3/uL and 6.74 ^3/uL and 5.30 ^3/uL and 6.52 ^3/uL and 6.73 ^3/uL and 4.11 ^3/uL and 3.60 ^3/uL and 7.39 ^3/uL and 5.17 ^3/uL and 5.75 ^3/uL
- PLT [6, 10]: 208 ^3/uL and 214 ^3/uL and 213 ^3/uL and 246 ^3/uL and 238 ^3/uL and 251 ^3/uL and 227.00 ^3/uL and 226.00 ^3/uL and 232.00 ^3/uL and 257 ^3/uL and 308 ^3/uL and 313 ^3/uL and 248 ^3/uL and 285.00 ^3/uL and 278.00 ^3/uL
- RBC [6, 10]: 6.44 ^6/uL and 6.81 ^6/uL and 6.37 ^6/uL and 6.46 ^6/uL and 7.19 ^6/uL and 6.71 ^6/uL and 6.45 ^6/uL and 7.00 ^6/uL and 6.54 ^6/uL and 5.68 ^6/uL and 6.61 ^6/uL and 6.11 ^6/uL and 5.92 ^6/uL and 5.90 ^6/uL and 6.27 ^6/uL
- RET % [6, 10]: 0.41% and 0.33% and 0.58% and 0.27% and 0.62% and 0.43% and 0.34% and 0.48% and 0.51% (2×) and 1.07% and 0.88% and 0.83% and 0.79% and 0.86%
- WBC [6, 10]: 8.23 ^3/uL and 10.09 ^3/uL and 9.86 ^3/uL and 10.41 ^3/uL and 10.37 ^3/uL and 10.50 ^3/uL and 9.32 ^3/uL (2×) and 10.23 ^3/uL and 10.18 ^3/uL and 10.21 ^3/uL and 7.45 ^3/uL and 6.63 ^3/uL and 11.18 ^3/uL and 8.42 ^3/uL
- Morphology after exposure ([7]; BisEDT in solution, all tested concentrations and time points): No morphology changes were observed
- Morphology after exposure ([7]; solid in dextran, 3.33 μg/cm^2, 24 and 48 h): Cells were rounded and opaque at the periphery of inserts
- Morphology after exposure ([7]; solid in dextran, 0.033 and 0.33 μg/cm^2): No morphological modifications were observed
- Morphology after exposure ([7]; solid, 1 μg/cm^2, 1 hour and 8 hour): no important morphological changes were observed
- Morphology after exposure ([7]; solid, 1 μg/cm^2, 24 h): the epithelial cells on 2 inserts out of 3 were dead
- Morphology after exposure ([7]; solid, 1 μg/cm^2, 48 h): the epithelial cells on all 3 inserts were dead
- TEER ([8]; BisEDT in solution 0.001-30 μM, all time points): didn't show significant effect
- TEER ([8]; solid, 1 μg/cm^2, 8, 24 and 48H): Loss of tissue integrity
- TEER ([8]; solid, 1 μg/cm^2, 1 hour): no significant effect
- TEER ([8]; solid, 0.033 and 0.33 μg/cm^2, all time points): No significant effect
- TEER ([8]; solid, all tested doses, 1 hour exposure): no significant effect

— US20230124862A1, “BISMUTH THIOL COMPOUNDS AND COMPOSITIONS AND METHODS OF TREATING MICROBIAL CO-INFECTIONS” (Microbion Corporation, priority 2020, published 2023)
